The source of these data is PMC6832219, “Synthesis of Novel Baicalein Amino Acid Derivatives and Biological Evaluation as Neuroprotective Agents” (Molecules, 2019).

The structures appear in SMILES notation. Bounds are passed on as bounds.

Data set [1] has as its system H9C2 cells. Description: Toxicity on normal H9C2 cells (MTT assay). It is filed as cell-based. The procedure: To study cytotoxicity on normal cells, the cytotoxicity of compounds against normal H9C2 cells were tested.
(§1) The SH-SY5Y ([…]) and H9C2 ([…]) cell lines were obtained from the Chinese Academy of Medical Sciences and Peking Union Medical College. All of the cell lines were grown in dulbecco’s modified eagle medium (DMEM) with 10% (v/v) fetal bovine serum (FBS) and 1% (v/v) penicillin/streptomycin (Thermo Technologies, New York, NY, USA), under a humidified atmosphere containing 5% CO2 at 37 °C. The baicalein derivatives were dissolved in DMSO (Sigma, St. Louis, MO, USA) and added at various concentrations to the cell culture.
(§2) The protective effect of these compounds was evaluated on SH-SY5Y and H9C2 cell lines via the MTT method. The cells growing in the logarithmic phase were cultured in 96-well plates at a density 3 × 10^3 cells/well and incubated for 24 h. Then each well was treated with the required concentrations (50 µM concentrations, 25 µM concentrations, 12.5µM concentrations, 6.25 µM concentrations, and 3.125 µM concentrations) of baicalein derivatives, and incubated 36 h at 37 °C with 5% CO2. After that, the cells were induced by H2O2 (final concentration, […]) for 12 h. Control-differentiated cells were injected with new growth media at equal amounts. Before […] MTT solution (5 mg/mL) was added to each well, the cell culture fluid was discarded, and […] fresh cell culture fluid was added. The plate was incubated for a further 4 h at 37 °C. The cell supernatant medium was removed carefully, without disturbing the attached cells, and formazan crystals were solubilized by adding 150 μL DMSO into each well. The absorbance was measured at 490 nm with a plate reader (BIORAD 550 spectrophotometer, Bio-rad Life Science Development Ltd., Beijing, China). H2O2 was dissolved in DMEM medium. Wells without drugs were used as blanks. The EC50 values were defined as the concentrations that causes the maximum effect of 50%; IC50 values were defined as the concentration of compound which gives 50% growth inhibition, and were calculated using the GraphPad Prism 5. The proliferation rates of damaged SH-SY5Y cells were calculated in the following formula (1): [OD490 (compound) − OD490 (CoCl2)]/[OD490 (NGF) − OD490 (CoCl2)] × 100%(1) The EC50 values were using the equation −pEC50 = log Cmax − log 2 × (ΣP − 0.75 + 0.25Pmax + 0.25Pmin)(2) where Cmax is the maximum concentration, ΣP is the sum of proliferation rates, Pmax is the maximum value of the proliferation rate, and Pmin is the minimum value of the proliferation rate. Cell viability was expressed as a percentage of the control.
The inhibition rate was calculated in the following equation: % inhibition = 1 − (Sample group OD/Control group OD) × 100%(3)

Data set [2] deals with injured SH-SY5Y cells. Put plainly: Protective effect against tert-butyl hydroperoxide-induced SH-SY5Y neurotoxicity cells (MTT assay).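 As to Proliferation Rate (%): 0% equals CoCl2-injured cells and 100% equals NGF-treated cells.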 The settings on record: Homo sapiens. The data set is classed as cell-based. On the procedure: The protective effects of baicalein derivatives in vitro was evaluated against tert-butyl, hydroperoxide-induced, SH-SY5Y neurotoxicity cells using an MTT assay. In addition, their toxicity evaluation was tested on normal H9C2 cells. The resulting proliferation rates (%) at different concentrations, as well as their 50% effective concentrations (EC50) for protecting damaged SH-SY5Y cells of the baicalein amino acid derivatives, are summarized in Table 2.
as §1, §2

Consider `O=C(NC(Cc1ccccc1)C(=O)Oc1c(O)cc2oc(-c3ccccc3)cc(=O)c2c1O)OCc1ccccc1` (stereo not drawn) [Compound 8, 5,7-dihydroxy-4-oxo-2-phenyl-4H-chromen-6-yl 2-{[(benzyloxy)carbonyl]amino}-3-phenyl-proppanpate], for which the viability at 6.25 µM in data set [1] (6.25 µM, H9C2 cells, MTT, read-out: Survival Rate (%)) is 195%; in data set [2] (6.25 µM, injured SH-SY5Y cells, read-out: Proliferation Rate (%)) it was 75.1%. The viability at 12.5 µM in data set [1] (12.5 µM, H9C2 cells, MTT, read-out: Survival Rate (%)) turned out to be 182%; in data set [2] (12.5 µM, injured SH-SY5Y cells, read-out: Proliferation Rate (%)), 83.1%. Moreover, the viability at 25 µM in data set [1] (25 µM, H9C2 cells, MTT, read-out: Survival Rate (%)) was determined as 169%; in data set [2] (25 µM, injured SH-SY5Y cells, read-out: Proliferation Rate (%)), 87.3%. For the same molecule, the viability at 50 µM was found to be 168% in data set [1] (50 µM, H9C2 cells, MTT, read-out: Survival Rate (%)) and 94% in data set [2] (50 µM, injured SH-SY5Y cells, read-out: Proliferation Rate (%)). Moreover, the “Toxicity against H9C2 cells (in words)” value in data set [1] (normal H9C2 cells) is listed as “lower toxicity on the H9C2 cell line”. In data set [1] (normal H9C2 cells, MTT), this molecule gave an IC50 of more than 100 µM. In data set [2] (3.125 µM, injured SH-SY5Y cells, read-out: Proliferation Rate (%)), the viability at 3.125 µM is 52.5%. The EC50 in data set [2] (tert-butyl hydroperoxide-induced SH-SY5Y neurotoxicity, read-out: EC50 for protecting injured SH-SY5Y cells) turned out to be 4.31 µM.
